Measured values published in US20230413887A1, “2'-FUCOSYLLACTOSE FOR USE IN STIMULATING F. PRAUSNITZII ABUNDANCE” (FrieslandCampina Nederland B.V., priority 2020, published 2023).
Entries after “also recorded” stand apart in the source; their conditions may differ.

Tests used:
[1] = tested on: Faecalibacterium prausnitzii; assay: in vitro incubation of 2′-FL with fecal inoculum of adult and elderly subjects, 16S rRNA microbiota composition; type: cell-based, human; conditions: 2′-FL 10 mg/ml, 10% (v/v) fecal inoculum, samples 0-24 h, adults 25-50 yrs and 70-79 yrs
Protocol: A group of twelve randomly contacted adults—three men and three women aged 25-50 yrs and three men and three women aged 70-79 yrs—donated their fecal material for an in vitro study. Anoxically cryo-conserved fecal inoculum was defrosted and transferred to a 96% N2 and 4% H2 filled anaerobic chamber. Incubation of 2′-FL (10 mg/ml) was done with 10% (v/v) fecal inoculum in duplicate, while incubations without fecal inoculum and without carbohydrates served as controls using the standard ileal efflux medium. Samples were collected 0 h, 4 h, 10 h and 24 h after inoculation.
Three aliquots of 1 ml from each culture bottle were then distributed into 1.5 ml Eppendorf tubes. One of these aliquots was heated at 100° C. for 5 min to determine carbohydrates in the supernatant. Afterwards, all samples were centrifuged at 4° C. at 18600 relative centrifugal force (rcf) for 10 min. The supernatants from the other two tubes were pooled and stored at −20° C. for metabolite measurement, while the remaining pellets were stored at −80 C for microbiota composition analysis.
The microbiota composition was determined by sequencing of barcoded 16S ribosomal RNA (rRNA) gene amplicons using Illumina Hiseq2500 (2×150 bp). […]

F. prausnitzii [2] = conditions: cited from earlier work
F. prausnitzii [3] = conditions: co-culture with Bifidobacterium longum subsp. infantis; cited from earlier work
F. prausnitzii [4] = conditions: rats; cited from earlier work

## 2′-fucosyllactose [2′-FL]
[1]
  abundance of F. prausnitzii as compared to control medium without 2′-FL: increase the abundance; also recorded: higher abundance
F. prausnitzii [2]
  effect on F. prausnitzii abundance in monocultures: does not affect
F. prausnitzii [3]
  effect on F. prausnitzii abundance in co-culture: not able to increase
F. prausnitzii [4]
  F. prausnitzii abundance as a result of 2′-FL administration: decrease
